According to USH1996H, “Insecticidal photostable acid salt derivatives of N-benzyl-4-benzhydrolpiperidines” (FMC Corporation, priority 1998, dated 2001):
Counter-ions that a name gives are not always drawn. Each block holds one compound with its values, some of them ahead of it.

Assays:
[1] = photostability under Suntest CPS illuminator (filtered xenon lamp), HPLC; type: physicochemical; conditions: photodegradation of thin film on glass coverslips, simulated sunlight (xenon lamp), about 25 °C, 0-96 hours
Experimental: Compounds of the present invention were subjected to determinations of their photostability in side-by-side tests with their non-ionic parent analogs. These photostability tests are conducted as follows:
For each compound tested, four glass microscope coverslips (12 mm in diameter) for each illumination period (0, 3, 6, 12, 24, 48, and 96 hours) are spotted with 10 microliters of a one mg/mL acetonitrile or methanol solution of test compound. The solutions are allowed to evaporate leaving a thin film of test compound on each coverslip. The four coverslips representing the zero hour illumination period are placed in a 20 mL scintillation vial. In the vile is placed one mL of acetonitrile, which extracts the test chemical from the coverslip. The solution is then transferred to a two dram vile for analysis by HPLC. The average HPLC peak area generated by this sample defines the initial level of test compound. The remaining coverslips are then placed in the water-cooled chamber of the exposure platform of a Suntest CPS illuminator (Heraeus Instruments GmbH; Bereich Original Hanau, Hersaeusstrasse R-14, Postfach 1563, D-6450 Hanau 1). The exposure platform is covered with a quartz plate and maintained at about 25° C. for the duration of the test. The Suntest CPS illuminator employs a filtered xenon lamp, which provides illumination of a similar spectrum and intensity as sunlight. Four coverslips for each test compound are removed from the illuminator at the end of each illumination period described above. The four coverslips from each of the illumination periods are treated as described above and the acetonitrile extract is analyzed by HPLC. The average HPLC peak area from each of the illumination periods represents a diminished amount of test compound when compared to the initial level of test compound as determined from the zero hour illumination sample. The percents of test compound remaining from each of these illumination periods are used to generate a degradation curve from which a half life in hours is determined for each test compound.

[2] = system: tobacco budworm (Heliothis virescens [Fabricius]); assay: insecticidal activity against tobacco budworm, treated artificial diet surface; type: in vivo; conditions: 0.0025 millimoles on the surface of the diet; second instar larvae; five-day exposure; 7200 min
Experimental: Candidate insecticides are evaluated for activity against tobacco budworm (Heliothis virescens [Fabricius]) by applications to the surface of a wheat germ-based artificial insect diet. Solutions of the candidate insecticides are prepared for testing by diluting a standard 50 millimolar DMSO solution of each candidate insecticide with DMSO, then further diluting with a 1:1 water/acetone solution (V/V). Forty microliters of this solution of calculated concentration is then pipetted onto the surface of the diet in each of six containers, to provide six replicates for each rate of application. Once treated, the contents of the containers are allowed to dry, leaving the calculated concentration ( in millimoles) of candidate insecticide on the surface of the diet. In each container is placed one second instar tobacco budworm […]. The container is sealed with a transparent film, and then held in a growth chamber for five days. After the five-day exposure period the insecticidal activity of the candidate insecticide is recorded as percent mortality when compared to the total number of insects infested. Insecticidal activity at a concentration of candidate insecticide of 0.0025 millimoles on the surface of the diet is given for various compounds of this invention in Table 4.

Half-life [1]: 5.5 h
Structure (SMILES): CCn1nnc(-c2ccc(CN3CCC(C(O)(c4ccc(C(F)(F)F)cc4)c4ccc(C(F)(F)F)cc4)CC3)cc2)n1 [A, reference compound]

Half-life [1]: 34.0 h
Structure (SMILES): CCn1nnc(-c2ccc(C[N+]3([O-])CCC(C(O)(c4ccc(C(F)(F)F)cc4)c4ccc(C(F)(F)F)cc4)CC3)cc2)n1 (centres unmarked) [Compound 33, N-[4-(2-ethyl-2H-tetrazol-5-yl)phenylmethyl]-4-[bis(4-trifluoro-methylphenyl)hydroxymethyl]piperidine N-oxide ethanesulfonic acid salt]

Further lines, the compound ahead of its results:

Structure (SMILES): CCn1nnc(-c2ccc(CN3CCC(C(O)(c4ccc(C(F)(F)F)cc4)c4ccc(C(F)(F)F)cc4)CC3)cc2)n1 [Compound 7]
Half-life [1]: 23.0 h

Structure (SMILES): CCn1nnc(-c2ccc(C[N+]3([O-])CCC(C(O)(c4ccc(C(F)(F)F)cc4)c4ccc(C(F)(F)F)cc4)CC3)cc2)n1 (centres unmarked) [B, N-[4-(2-ethyl-2H-tetrazol-5-yl)phenylmethyl]-4-[bis(4-trifluoromethylphenyl)hydroxymethyl]piperidine N-oxide, reference compound]
Half-life [1]: 13.9 h

Structure (SMILES): COC(=O)Nc1ccc(C[N+]2([O-])CCC(C(O)(c3ccc(OC(F)(F)F)cc3)c3ccc(OC(F)(F)F)cc3)CC2)cc1 (centres unmarked) [Compound 16]
Percent Mortality [2]: 100%
